Some test systems named below: TK-10 renal; EKVX NSCLC; SNB-19 CNS; SF-295 CNS; A498 renal; SK-MEL-5 melanoma; K-562 leukemia; SW-620 colon; NCI-H460 lung; SR leukemia.
Holding throughout (experiment): growth of human tumour cells (NCI), 48 h

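The compound was tested at five concentrations on cells cultured in 96-well plates, with a 48-hour exposure period. GI50 marks 50% less growth. At the TGI there is no net growth.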

For the compound `CCC(C)C(NC(=O)C1CCCN1C(=O)C(NC(=O)C(C)N)C(C)C)C(N)=O` (configuration not stated), the GI50 in the assay with TK-10 renal was more than 100 µM; in the assay with EKVX NSCLC it was 77.2 µM; in the assay with SNB-19 CNS, more than 100 µM; in the assay with SF-295 CNS it was more than 100 µM; with A498 renal, more than 100 µM; with SK-MEL-5 melanoma, more than 100 µM. For the same compound, the GI50 with K-562 leukemia, with SW-620 colon and with NCI-H460 lung was more than 100 µM in each case. Moreover, the TGI in the assay with TK-10 renal, in the assay on EKVX NSCLC, in the assay on SNB-19 CNS, in the assay with SF-295 CNS, with A498 renal and with SK-MEL-5 melanoma was more than 100 µM in each case. For the same compound, the TGI in the assay with K-562 leukemia, with SW-620 colon and in the assay with NCI-H460 lung was more than 100 µM in each case.

As for `COC(=O)C1=C(CO)C2C=CC1C2` (configuration not stated), the TGI with TK-10 renal, in the assay on EKVX NSCLC, in the assay on SNB-19 CNS, in the assay with SF-295 CNS, in the assay with A498 renal and with SK-MEL-5 melanoma was more than 100 µM each time. The TGI with K-562 leukemia, in the assay on SW-620 colon and in the assay with NCI-H460 lung was more than 100 µM each time.

Regarding `O=C1C(=O)C(Br)(Br)C(Br)=C1Br`, the TGI was 39.9 µM in the assay on TK-10 renal; 54.8 µM in the assay on EKVX NSCLC; more than 100 µM in the assay on SNB-19 CNS; more than 100 µM in the assay on SF-295 CNS; 29.4 µM with SK-MEL-5 melanoma; 41.3 µM in the assay with K-562 leukemia. Also, the TGI was 31.9 µM in the assay with SW-620 colon and more than 100 µM with NCI-H460 lung.

Take `COc1ccc(/C=C2\CCC(C)(CN(C)C)C2=O)cc1` (configuration not stated): the TGI with TK-10 renal, in the assay on EKVX NSCLC, with SNB-19 CNS, in the assay on SF-295 CNS, in the assay with A498 renal and in the assay on SK-MEL-5 melanoma was more than 100 µM in each case. The TGI with K-562 leukemia, in the assay on SW-620 colon and in the assay on NCI-H460 lung was more than 100 µM throughout.

On to `O=c1c2ccccc2c2nc3ccccc3nc2n1C1CCCCC1`, for which the TGI in the assay with TK-10 renal, in the assay with EKVX NSCLC, in the assay with SNB-19 CNS, in the assay with SF-295 CNS, in the assay with SK-MEL-5 melanoma and in the assay with K-562 leukemia was more than 100 µM each time. Further, the TGI with SR leukemia and in the assay with SW-620 colon was more than 100 µM throughout.

In the case of `N#CCCN(c1ccc(-c2nnc(NC(=O)CNNC(=O)CC(=O)Nc3ccccc3)s2)cc1)S(=O)(=O)c1ccccc1`, the TGI with TK-10 renal, with EKVX NSCLC, in the assay with SNB-19 CNS, in the assay with SF-295 CNS, with A498 renal and in the assay on SK-MEL-5 melanoma was more than 100 µM throughout. Moreover, the TGI in the assay on K-562 leukemia, in the assay on SW-620 colon and in the assay on NCI-H460 lung was more than 100 µM in each case.

For `O=C1OC(O)C(Oc2ccc(Cl)cc2)=C1Cl` (configuration not stated), the TGI with TK-10 renal, with EKVX NSCLC, in the assay with SNB-19 CNS, in the assay with SF-295 CNS, in the assay with A498 renal and with K-562 leukemia was more than 100 µM throughout. Moreover, the TGI in the assay with SW-620 colon and in the assay on NCI-H460 lung was more than 100 µM each time.

For `COc1ccc([N+](=O)[O-])c(S(=O)(=O)c2ccc(Cl)cc2)n1`, the GI50 with TK-10 renal was 3.57 µM; with SNB-19 CNS, 13 µM; in the assay with SF-295 CNS, 13.1 µM; in the assay on SK-MEL-5 melanoma it was 12 µM; in the assay on K-562 leukemia, 3.02 µM; in the assay on SR leukemia it was 3 µM. The values for the GI50 in the assay with SW-620 colon and with NCI-H460 lung were 2.06 µM and 14.6 µM, respectively. Besides, the TGI in the assay with TK-10 renal was 11.7 µM; in the assay on SNB-19 CNS, 29.2 µM; in the assay with SF-295 CNS, 28 µM; with SK-MEL-5 melanoma it was 24.9 µM; with K-562 leukemia it was more than 100 µM; with SR leukemia it was more than 100 µM. Further, the TGI came to 4.65 µM in the assay on SW-620 colon and 30.1 µM with NCI-H460 lung.

Turning to `CN(C)CC1(C)CC/C(=C\c2ccccc2)C1=O` (configuration not stated), the TGI with TK-10 renal, in the assay on SNB-19 CNS, with SF-295 CNS, in the assay on A498 renal, in the assay on SK-MEL-5 melanoma and with K-562 leukemia was more than 100 µM throughout. The TGI in the assay with SW-620 colon and in the assay on NCI-H460 lung was more than 100 µM in each case.

As to `CC(C)(C)C(=O)C1CC(=O)c2ccccc2C1=O` (configuration not stated), the TGI with TK-10 renal was more than 100 µM; in the assay on EKVX NSCLC, more than 100 µM; in the assay on SNB-19 CNS it was more than 100 µM; with SF-295 CNS, more than 100 µM; in the assay with A498 renal it was 91.3 µM; in the assay with SK-MEL-5 melanoma, 72.8 µM. Besides, the TGI in the assay with K-562 leukemia, in the assay with SW-620 colon and in the assay with NCI-H460 lung was more than 100 µM each time.

For `COc1cc2nc(Nc3cccc(F)c3)nc(Nc3cc(C)[nH]n3)c2cc1OC`, the GI50 is 1.82 µM in the assay on TK-10 renal; 1.75 µM with EKVX NSCLC; 1.95 µM with SNB-19 CNS; 1.58 µM in the assay on SF-295 CNS; 1.44 µM in the assay on SK-MEL-5 melanoma; 1.36 µM with K-562 leukemia. Also, the GI50 in the assay on SR leukemia is 2.27 µM; in the assay with SW-620 colon it was 1.84 µM; in the assay on NCI-H460 lung it was 1.83 µM. The TGI with TK-10 renal was determined as 3.68 µM; in the assay on EKVX NSCLC, 3.41 µM; in the assay with SNB-19 CNS it was 4.05 µM; with SF-295 CNS it was 3.04 µM; in the assay with SK-MEL-5 melanoma it was 2.84 µM; in the assay with K-562 leukemia, 4.94 µM. For the same compound, the TGI in the assay on SR leukemia came to 8.36 µM; with SW-620 colon it was 3.75 µM; in the assay with NCI-H460 lung, 3.74 µM.

For the compound `O=C1CCC2(CC1)SCCCS2`, the TGI in the assay with TK-10 renal, with EKVX NSCLC, with SNB-19 CNS, in the assay with SF-295 CNS, with A498 renal and in the assay with SK-MEL-5 melanoma was more than 100 µM throughout. Further, the TGI with K-562 leukemia, in the assay on SW-620 colon and in the assay with NCI-H460 lung was more than 100 µM in each case.

With `NC(=S)N/N=C1/C(=O)N(c2ccc(Cl)cc2Cl)C(=O)C(=O)C1c1nc2ccccc2s1` (configuration not stated), the TGI in the assay on TK-10 renal, with EKVX NSCLC, with SNB-19 CNS, in the assay with SF-295 CNS, in the assay with SK-MEL-5 melanoma and in the assay with K-562 leukemia was more than 100 µM throughout. Moreover, the TGI with SW-620 colon and in the assay on NCI-H460 lung was more than 100 µM throughout.

Source of the values: PubChem BioAssay (NCI).
